{"source": "patent US12491178B2", "about": "“Stable pharmaceutical compositions of edaravone” (Slayback Pharma LLC, priority 2023, dated 2025)", "key": {"[1]": {"test": "Solubility of edaravone in solubility enhancing agents", "format": "physicochemical", "excerpt": "The table below, illustrates the best possible solubilizing agents that are utilized in the present invention."}, "[2]": {"details": "cited from earlier work"}}}
{"smiles": "CC1=NN(c2ccccc2)C(=O)C1", "note": "[edaravone, 3-methy-1-phenyl-2-pyrazolin-5-one]", "values": [{"measurement": "Solubility", "setting": "[1]; in Alcohol", "value": 52.27, "unit": "mg/gm"}, {"measurement": "Solubility", "setting": "[1]; in CCMG 400 LQ (Mixture of caprylocaproyl polyoxylglycerides)", "value": 14.36, "unit": "mg/gm"}, {"measurement": "Solubility", "setting": "[1]; in Capryol 90 (Propylene Glycol Monocaprylate)", "value": 15.8, "unit": "mg/gm"}, {"measurement": "Solubility", "setting": "[1]; in Capryol 90 + Ethanol (50:50)", "value": 65.0, "unit": "mg/gm"}, {"measurement": "Solubility", "setting": "[1]; in Castor Oil", "value": 7.9, "unit": "mg/gm"}, {"measurement": "Solubility", "setting": "[1]; in Castor oil + Ethanol (50:50)", "value": 72.2, "unit": "mg/gm"}, {"measurement": "Solubility", "setting": "[1]; in Cotton seed oil", "value": 2.1, "unit": "mg/gm"}, {"measurement": "Solubility", "setting": "[1]; in Imwitor 988 (Ester of caprylic acid and glycerol)", "value": 13.59, "unit": "mg/gm"}, {"measurement": "Solubility", "setting": "[1]; in Kollisolv MCT 70", "value": 8.61, "unit": "mg/gm"}, {"measurement": "Solubility", "setting": "[1]; in Labrafil M 1944 (Oleoyl polyoxyl-6 glycerides)", "value": 6.9, "unit": "mg/gm"}, {"measurement": "Solubility", "setting": "[1]; in Labrafil M 2125 (Linoleoyl Polyoxyl-6 glycerides)", "value": 9.10, "unit": "mg/gm"}, {"measurement": "Solubility", "setting": "[1]; in Labrasol ALF (Caprylocaproyl Polyoxyl-8 glycerides), edaravone dissolved per gram of agent", "value": 25.1, "unit": "mg/gm"}, {"measurement": "Solubility", "setting": "[1]; in Labrasol ALF + Ethanol (50:50)", "value": 78.8, "unit": "mg/gm"}, {"measurement": "Solubility", "setting": "[1]; in Lauroglycol 90 (Propylene glycol monolaurate)", "value": 8.1, "unit": "mg/gm"}, {"measurement": "Solubility", "setting": "[1]; in Miglyol 812 (Triester of caprylic and capric acid)", "value": 11.26, "unit": "mg/gm"}, {"measurement": "Solubility", "setting": "[1]; in PEG 300 (polyethylene glycol)", "value": 26.4, "unit": "mg/gm"}, {"measurement": "Solubility", "setting": "[1]; in PEG 300 + Ethanol (50:50)", "value": 66.3, "unit": "mg/gm"}, {"measurement": "Solubility", "setting": "[1]; in Peanut oil", "value": 1.7, "unit": "mg/gm"}, {"measurement": "Solubility", "setting": "[1]; in Peppermint Oil", "value": 37.6, "unit": "mg/gm"}, {"measurement": "Solubility", "setting": "[1]; in Peppermint Oil + Ethanol (50:50)", "value": 72.8, "unit": "mg/gm"}, {"measurement": "Solubility", "setting": "[1]; in Polysorbate 20", "value": 17.7, "unit": "mg/gm"}, {"measurement": "oral bioavailability (Fabs)", "setting": "[2]", "value": 5.23, "unit": "%"}]}
